Laboratory results: patent US20250057930A1, “ANAPLASTIC LYMPHOMA KINASE (ALK) CANCER VACCINES AND METHODS OF USE THEREOF” (The Children's Medical Center Corporation, priority 2022, published 2025)

What was measured:
[1] = tested on: Ad-EA mice (mEml4-Alk rearranged lung tumor); test: Lung tumor volume by MRI and survival in Ad-EA mice; assay type: in vivo, mouse
From the text: (§2) EML4-ALK transgenic (Tg) mice, which express the human EML4-ALK (E13;A20, human variant 1) driven by the SP-C promoter (henceforth referred as hEML4-ALK Tg mice), and BALB/c mice infected intratracheally with adenovirus carrying the CRISPR/Cas9 system to induce in vivo the Eml4-Alk rearrangement (E14;A20, mouse variant 1) (henceforth referred as Ad-EA mice). […] In these models, magnetic resonance imaging (MRI) (FIG. 1B) allowed precise cohort stratification and tumor follow-up.
Anatomical T2-weighted coronal images were acquired with a respiratory-triggered multislice fast spin echo RARE sequence (TR=4 s, TE=4.5 ms, Rare Factor (RF)=16, FOV=30 mm^2, Matrix=256×256, slices=16-20, slice thickness=1 mm, 2 averages, providing an in-plane spatial resolution of 117 μm) with a 7T MRI (Bruker Advance III, Ettlingen, Germany) scanner equipped with a quadrature 1H coil. Animals were anesthetized by intraperitoneal injection of a combination of ROMPUN® (Bayer, 5 mg/kg) and ZOLETIL 100® (Laboratoires Virbac, 20 mg/kg); breathing was monitored during acquisition of the MR images with a respiratory sensor (SA Instruments, Inc.). Tumor volumes and numbers of masses calculations were performed by manual segmentation (slice by slice contouring) with ITK-SNAP software (www.itksnap.org).
Syngeneic mice models transplanted with tumor cells were treated intraperitoneally with 200 μg of anti-PD-1 and/or anti-CTLA-4 (clone 9D9, Bioxcell), on days 3, 6, and 9 post-tumor transplantation (3 injections/per mouse).

[2] = tested on: ALK-rearranged (ALK^+) NSCLC; details: patients with resistance to earlier ALK TKIs; cited from earlier work
mEml4-Alk cell lines = test: Cell viability assay (CellTiter-Glo) in mEml4-Alk cell lines; assay type: cell-based; details: Mus musculus, mEml4-Alk^1, 72 h
Method: (§1) “[…]” is disclosed as SEQ ID NO: 22. […] “[…]” is disclosed as SEQ ID NO: 22.
Cell viability assay was performed in all immortalized mouse cell lines by using CellTiter-Glo (Promega, USA) according to the manufacturer's instructions. […] After 72 h, CellTiter-Glo reagent was added to each well and luminescence output data were taken by GloMax-Multi Detection System (Promega, USA). The correspondent IC50 value for each ALK inhibitor was calculated with GraphPad Prism 9 software (GraphPad, USA).

[3] = tested on: mEml4-Alk cell line tumors; test: mEml4-Alk syngeneic tumors in BALB/c mice; assay type: in vivo; details: mEml4-Alk cell lines in syngeneic BALB/c mice
Method: as §1
To determine whether these differences in anaplastic lymphoma kinase (ALK)-specific CD8^+ T-cell responses translated into a different anti-tumor activity, mice were treated with either flank or lung tumors with immune checkpoint inhibitors (ICIs). […] Tumor-free mice were then rechallenged to assess ALK-specific CD8^+ T-cell memory response. […] In contrast to flank tumors, ICI was ineffective against Eml4-Alk^[…]-1 (“[…]” disclosed as SEQ ID NO: 22) lung tumors as measured by overall survival (FIG. 3I), and lung tumor histology (FIG. 3J). Systemic ALK-specific CD8^+ T-cell response was analyzed in mice bearing flank or lung tumors. […] It was concluded that the robustness of the spontaneous ALK-specific CD8^+ T-cell response depended on tumor localization and determined the response to immune checkpoint inhibitors (ICIs).
For syngeneic subcutaneous tumor transplantation, a total of 1×10^6 immortalized mouse cells were subcutaneously inoculated into the right dorsal flanks of 8-12 week-old BALB/c mice in 100 μL of phosphate-buffered saline (PBS). […] Tumor volume was measured by caliper measurements every 3 days in a blinded fashion and calculated according to the following equation: H. W^2/2. […]

[4] = tested on: hEML4-ALK Tg mice (ALK^+ lung tumors); test: Lung tumor volume by MRI and survival in hEML4-ALK Tg mice; details: crizotinib 40 mg/kg or lorlatinib 2 mg/kg, MRI
From the text: as §2
Anatomical T2-weighted coronal images were acquired with a respiratory-triggered multislice fast spin echo RARE sequence (TR=4 s, TE=4.5 ms, Rare Factor (RF)=16, FOV=30 mm^2, Matrix=256×256, slices=16-20, slice thickness=1 mm, 2 averages, providing an in-plane spatial resolution of 117 μm) with a 7T MRI (Bruker Advance III, Ettlingen, Germany) scanner equipped with a quadrature 1H coil. Animals were anesthetized by intraperitoneal injection of a combination of ROMPUN® (Bayer, 5 mg/kg) and ZOLETIL 100® (Laboratoires Virbac, 20 mg/kg); breathing was monitored during acquisition of the MR images with a respiratory sensor (SA Instruments, Inc.). Tumor volumes and numbers of masses calculations were performed by manual segmentation (slice by slice contouring) with ITK-SNAP software (www.itksnap.org). […]

H2-Dd expression = test: H2-Dd surface expression on MHC-I^low lung tumor escaper cell lines (flow cytometry); assay type: cell-based, mouse; details: H2-Dd-downregulated cell lines; ADU-S100 50 μM, 24 h
Method: To uncover the mechanisms that would explain this resistance to treatment, ex vivo escaped tumors were isolated from each treatment group. […] To understand whether the observed H2-Dd downregulation was sufficient to impair tumor rejection, tumor cells with high H2-Dd isolated from untreated mice or tumor cells with low H2-Dd isolated from ALK vaccinated mice and treated with ICI were injected. Treatment with ICI induced rejection of tumors with high H2-Dd expression (FIGS. 6D-6E), consistent with previous experiments (FIG. 3E), but not of escaped tumors with low H2-Dd expression (FIGS. 6F-6G). Finally, it was asked whether H2-Dd expression could be restored by Stimulator of IFN genes (STING) signaling that can increase MHC-I expression in other models of lung cancer.
Allophycocyanin (APC)-conjugates H-2D^d-[…] (SEQ ID NO: 22) Dextramer reagents were obtained from Immudex (Immudex, Denmark). […] After washing step, cells were ready to be acquired. When referred, also PD-1 (clone RMP1-30; BV421-PD-1, BD Pharmingen™, USA) expression was evaluated together with dextramer staining, being added together with FITC-CD8. H2-Dd MHC-I expression was measured on relapsed tumors after treatment. […] All cells were acquired in a BD Celesta flow cytometer (BD Bioscience, USA) and analyzed by using the FlowJo software (FlowJo LCC, USA). […]

SMILES | tumor response at the end of treatment ([1]; crizotinib 40 mg/kg or lorlatinib 2 mg/kg, MRI) | tumor response by MRI, prolonged treatment ([1]; lorlatinib up to 8 weeks, tumors relapsed upon suspension) | average disease control [2] | IC50 (mEml4-Alk cell lines) | tumor sensitivity in vivo [3] | tumor response at the end of treatment [4] | H2-Dd expression (H2-Dd expression)
C[C@H]1Oc2cc(cnc2N)-c2c(nn(C)c2C#N)CN(C)C(=O)c2ccc(F)cc21 [lorlatinib] | almost complete regression of tumors | complete remission by MRI | 7 months | 1.17 nM | marked sensitivity | almost complete regression of tumors | –
Nc1ncnc2c1ncn2[C@@H]1O[C@@H]2CO[P@](=O)(S)O[C@@H]3[C@H](O)[C@@H](CO[P@@](=O)(S)O[C@H]2[C@H]1O)O[C@H]3n1cnc2c(N)ncnc21 [ADU-S100, reference compound] | – | – | – | – | – | – | strongly upregulating H2-Dd expression
